These results are taken from ChEMBL document CHEMBL1201862, “PubChem BioAssay data set” (2004).

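Cultured in 96-well plates, cells were exposed to test compound for 48 hours across five concentrations. GI50: concentration for 50% inhibition of growth.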 Calls of active or inactive are those of the source. Cut-off read from the data, not from the text of the source: active = GI50 up to about 1.1 µM and inactive = higher.

What all share (experiment): inhibition of tumour cell growth, NCI panel, 48 h
Assay [1] concerns 786-0.
Assay [2] relates to CAKI-1.
The subject of assay [3] is EKVX.
In assay [4] the test system is HT-29.
Assay [5] concerns M14.
Assay [6] relates to MCF7.
Assay [7] deals with MDA-MB-435.
Assay [8] deals with MDA-N.
In assay [9] the test system is NCI-H23.
Assay [10] deals with NCI-H522.
The test system of assay [11] is NCI/ADR-RES.
Assay [12] concerns OVCAR-8.
The subject of assay [13] is PC-3.
For assay [14], the system named is SF-268.
In assay [15] the test system is SK-MEL-2.
The subject of assay [16] is SK-OV-3.
Assay [17] relates to SN12C.
In assay [18] the test system is SR.
Assay [19] concerns SW-620.
In assay [20] the test system is UACC-62.

Take `O=C1NC(=S)NC(=O)C1=Cc1cccc2cc3ccccc3cc12`: the GI50 was 1.61 µM (inactive) in assay [1]; 2.03 µM (inactive) in [2]; 2.91 µM (inactive) in [3]; 2.13 µM (inactive) in assay [4]; 2.24 µM (inactive) in assay [5]; 1.8 µM (inactive) in [6]. Further, the GI50 in [7] was 2.12 µM (inactive); in assay [8], 2.19 µM (inactive); in [9], 1.87 µM (inactive); in assay [10], 1.91 µM (inactive); in [11], 2.22 µM (inactive); in assay [12] it was 1.86 µM (inactive). Moreover, the GI50 in assay [13] was 1.74 µM (inactive); in assay [14], 2.06 µM (inactive); in assay [15], 1.92 µM (inactive); in assay [16], 2.83 µM (inactive); in [17] it was 2.32 µM (inactive); in [18] it was 1.44 µM (inactive). Also, the values for the GI50 in assay [19] and in assay [20] were 2.58 µM (inactive) and 1.87 µM (inactive), respectively.
For `CC1=Nc2ccccc2/C1=C\c1c(C)[nH]c2ccccc12`, the GI50 was 12 µM (inactive) in assay [1]; 13.8 µM (inactive) in [2]; 12.2 µM (inactive) in [3]; 12.8 µM (inactive) in [4]; 23.2 µM (inactive) in [5]; 4.49 µM (inactive) in assay [6]. Also, the GI50 in assay [7] is 6.59 µM (inactive); in assay [8], 6.75 µM (inactive); in assay [9], 13 µM (inactive); in [10], 10 µM (inactive); in [11] it was 16.2 µM (inactive); in assay [12], 12.4 µM (inactive). Moreover, the GI50 in [13] is 13.6 µM (inactive); in assay [14], 11.2 µM (inactive); in assay [15], 17.8 µM (inactive); in [16], 15.6 µM (inactive); in assay [17], 21.4 µM (inactive); in assay [18], 5.9 µM (inactive). Further, the GI50 in assay [19] is 11 µM (inactive); in assay [20], 5.26 µM (inactive).
`COc1ccc2nc3c([N+](=O)[O-])ccc4c3c(c2c1)N=CN4CCN(C)C`: the GI50 was 3.61 µM (inactive) in assay [1]; 1.36 µM (inactive) in assay [2]; 4.65 µM (inactive) in assay [3]; 2.52 µM (inactive) in [4]; 4.8 µM (inactive) in assay [5]; 3.3 µM (inactive) in assay [6]. In addition, the GI50 in assay [7] is 6.67 µM (inactive); in assay [8], 4.71 µM (inactive); in assay [9] it was 7.55 µM (inactive); in [10], 2.03 µM (inactive); in [11] it was 3.18 µM (inactive); in assay [12], 2.82 µM (inactive). The GI50 in assay [13] was 4.65 µM (inactive); in [14], 4.09 µM (inactive); in assay [15], 9.23 µM (inactive); in [16], 9.27 µM (inactive); in assay [17], 2.88 µM (inactive); in assay [18], 0.168 µM (active). Also, the GI50 was 3.3 µM (inactive) in assay [19] and 8.71 µM (inactive) in [20].
For `CO[C@H]1[C@@H](O)[C@@H](C)O[C@@H](O[C@H]2CC[C@@]3(C)[C@H](CC[C@@H]4[C@@H]3CC[C@]3(C)[C@@H](C5=CC(=O)OC5)CC[C@]43O)C2)[C@@H]1O` [ODOROSIDE H], the GI50 was 0.00453 µM (active) in [1]; 0.0048 µM (active) in [2]; 0.00474 µM (active) in assay [3]; 0.00573 µM (active) in assay [4]; 0.0137 µM (active) in [5]; 0.00773 µM (active) in assay [6]. Moreover, the GI50 is 0.00908 µM (active) in assay [7]; 0.00767 µM (active) in [8]; 0.00462 µM (active) in assay [9]; < 0.0025 µM (active) in [10]; 0.00548 µM (active) in [11]; 0.00661 µM (active) in [12]. Also, the GI50 in [13] is 0.00426 µM (active); in assay [14], 0.00422 µM (active); in assay [15] it was 0.0169 µM (active); in assay [16] it was 0.00964 µM (active); in assay [17] it was 0.00467 µM (active); in assay [18], 0.00304 µM (active). For the same compound, the GI50 in [19] is < 0.0025 µM (active); in assay [20] it was 0.00689 µM (active).
As to `Fc1cccc(F)c1C1SCc2nc3cc(Cl)c(Cl)cc3n21` (stereo not given), the GI50 in [1] is > 73.5 µM (inactive); in [2], > 100 µM (inactive); in [3], > 100 µM (inactive); in assay [4], > 100 µM (inactive); in assay [5], > 100 µM (inactive); in assay [6], > 100 µM (inactive). The GI50 in assay [7], in assay [8], in [9], in assay [10], in assay [11] and in assay [12] was > 100 µM (inactive) throughout. Besides, the GI50 in [13], in [14], in assay [15], in [16], in assay [17] and in assay [18] was > 100 µM (inactive) in each case. For the same compound, the GI50 in [19] and in assay [20] was > 100 µM (inactive) in each case.
